According to publication PMC6164331, “Synthesis, Evaluation for Cytotoxicity and Molecular Docking Studies of Benzo[c]furan-Chalcones for Potential to Inhibit Tubulin Polymerization and/or EGFR-Tyrosine Kinase Phosphorylation” (International Journal of Molecular Sciences, 2018):
Where two headings read alike, the source gives them in different places. Starred links: 1 amine or outer side, 2 acyl side, 3 side chain; linkers in the order of their positions; H or OH if unused. Positions of bridges follow the written chain, without caps; N, C: chain ends. Non-standard residues stand in square brackets, D forms with d. Residues, ends and D or L forms follow the SMILES beside them. Chains are numbered I, II in the order given. Actinocin(9to1) = Cc1c2oc3c(C)ccc(C(=O)[*:1])c3nc-2c(C(=O)[*:2])c(N)c1=O; NMeV = CN[C@H](C(=O)O)C(C)C; Sar = CNCC(=O)O

What was measured:
[1] = target: tubulin (Sus scrofa, UniProt P02550+P02554); assay: Cell-free tubulin polymerization assay; assay type: biochemical; settings: for IC50: colchicine as positive control, read-out: IC50 against tubulin polymerization; for inhibitory effect against tubulin polymerization (in words): compared to colchicine or to the other derivatives of the series
Chain of tubulin (P02550 whole entry): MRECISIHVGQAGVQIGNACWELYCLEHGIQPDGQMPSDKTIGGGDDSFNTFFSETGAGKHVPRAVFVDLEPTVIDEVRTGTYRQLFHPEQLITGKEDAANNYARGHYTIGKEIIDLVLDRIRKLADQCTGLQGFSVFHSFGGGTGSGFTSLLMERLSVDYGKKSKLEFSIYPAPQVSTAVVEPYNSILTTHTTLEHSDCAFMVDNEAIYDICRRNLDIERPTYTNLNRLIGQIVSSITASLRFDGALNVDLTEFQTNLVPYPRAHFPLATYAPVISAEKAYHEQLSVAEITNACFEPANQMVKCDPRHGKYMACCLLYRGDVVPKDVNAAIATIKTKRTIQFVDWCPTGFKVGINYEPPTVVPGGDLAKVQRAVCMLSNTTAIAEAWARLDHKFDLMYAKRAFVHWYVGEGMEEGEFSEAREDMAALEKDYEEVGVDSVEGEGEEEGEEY
Chain of tubulin (P02554 whole entry): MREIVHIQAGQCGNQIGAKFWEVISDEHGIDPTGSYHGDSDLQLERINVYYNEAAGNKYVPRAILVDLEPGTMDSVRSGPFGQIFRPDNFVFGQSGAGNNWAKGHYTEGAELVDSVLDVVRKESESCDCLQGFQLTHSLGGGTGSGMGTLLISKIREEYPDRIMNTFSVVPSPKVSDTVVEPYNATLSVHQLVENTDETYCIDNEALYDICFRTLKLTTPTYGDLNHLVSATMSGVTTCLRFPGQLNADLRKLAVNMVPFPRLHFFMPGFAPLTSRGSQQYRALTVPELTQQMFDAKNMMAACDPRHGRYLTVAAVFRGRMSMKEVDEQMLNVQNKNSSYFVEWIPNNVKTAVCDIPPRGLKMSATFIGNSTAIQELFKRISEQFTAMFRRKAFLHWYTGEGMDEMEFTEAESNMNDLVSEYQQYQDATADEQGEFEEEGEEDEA
Protocol: Tubulin polymerization assays were carried out using the tubulin polymerization assay kit (Cytoskeleton, Inc., Denver, CO, USA) following the instruction by the manufacturer.

[2] = test system: MCF-7 cell line; assay: MTT cytotoxicity assay against the MCF-7 cell line; settings: for IC50: read-out: MCF-7 Cell Line IC50 (μM) ± SD; for cytotoxicity against MCF-7 cells (in words): compared to actinomycin D
Protocol: The human breast cancer (MCF-7) cell line was maintained in culture flasks containing Dulbecco’s Modified Eagles Medium (DMEM). The media was supplemented with 1% antibiotics (100 µg/mL penicillin, 100 µg/mL streptomycin and 250 µg/L fungizone) and 10% heat-inactivated fetal bovine serum. […] The cells were sub-cultured every two-to-three days after the cells had formed a confluent monolayer.
The compounds were assessed at 0–100 µM. The control wells included vehicle treated cells exposed to 2% DMSO and the positive control, actinomycin D, with concentrations ranging between 5, 10, 25, and 50, and 100 µM. The microtitre plates were incubated for 48 h. After the 48 h incubation period the MTT reagent (10 µL) was added to a final concentration of 0.5 mg/mL and the plate was further incubated for another 4 h. After 4 h, 100 µL of the solubilisation solution was added to each well and the plate was allowed to stand overnight. Subsequently, the absorbance of the color complex was read at 550 nm with a reference wavelength set at 650 nm using a BIO-TEK Power-Wave XS multi-well plate reader (BioTech Instruments, Midrand, South Africa). The IC50 values of the compounds were calculated using OriginPro software (OriginLab Corporation, Northampton, MA, USA).

[3] = test system: MCF-7 cells; assay: Annexin V-Cy3 SYTOX staining apoptosis assay (flow cytometry); assay type: cell-based, human; settings: for viability at 1 µM: Homo sapiens, read-out: %Viable Cells (Q3)
From the text: Several distinctive modes of cell death such as apoptosis, necrosis, autophagy, and cornification exist and are characterized by differences in their morphology and their biochemical changes. […] We employed the Annexin V-Cy3 SYTOX apoptosis assay kit to distinguish between viable cells (Annexin V-negative; PI-negative), early apoptotic cells (Annexin V-positive; PI-negative), late apoptotic cells (Annexin V-positive; PI-positive) and unviable or necrotic cells (Annexin V-negative; PI-positive). The cells were analyzed by the flow cytometry, which is an important tool to evaluate the molecular and morphological events that take place during cell death and cell proliferation.
The percentage population of apoptotic cells were determined using Annexin V–Cy3 SYTOX apoptosis detection kit (Abcam, Milton, Cambridge, UK) according to the manufacturer’s instructions. […] The cells were incubated for 48 h and then stained with Annexin V–Cy3 SYTOX green dye. The cells were analyzed using BD Biosciences FACSAria III flow cytometer (BD Biosciences, San Jose, CA, USA).

[4] = target: T1, EGFR-TK (Homo sapiens, UniProt P00533); assay: EGFR-TK phosphorylation inhibition assay (ELISA); assay type: biochemical; settings: purified EGFR
T1 construct: purchased Sigma-Aldrich, Bradford, UK
T1 sequence (P00533 25-1210): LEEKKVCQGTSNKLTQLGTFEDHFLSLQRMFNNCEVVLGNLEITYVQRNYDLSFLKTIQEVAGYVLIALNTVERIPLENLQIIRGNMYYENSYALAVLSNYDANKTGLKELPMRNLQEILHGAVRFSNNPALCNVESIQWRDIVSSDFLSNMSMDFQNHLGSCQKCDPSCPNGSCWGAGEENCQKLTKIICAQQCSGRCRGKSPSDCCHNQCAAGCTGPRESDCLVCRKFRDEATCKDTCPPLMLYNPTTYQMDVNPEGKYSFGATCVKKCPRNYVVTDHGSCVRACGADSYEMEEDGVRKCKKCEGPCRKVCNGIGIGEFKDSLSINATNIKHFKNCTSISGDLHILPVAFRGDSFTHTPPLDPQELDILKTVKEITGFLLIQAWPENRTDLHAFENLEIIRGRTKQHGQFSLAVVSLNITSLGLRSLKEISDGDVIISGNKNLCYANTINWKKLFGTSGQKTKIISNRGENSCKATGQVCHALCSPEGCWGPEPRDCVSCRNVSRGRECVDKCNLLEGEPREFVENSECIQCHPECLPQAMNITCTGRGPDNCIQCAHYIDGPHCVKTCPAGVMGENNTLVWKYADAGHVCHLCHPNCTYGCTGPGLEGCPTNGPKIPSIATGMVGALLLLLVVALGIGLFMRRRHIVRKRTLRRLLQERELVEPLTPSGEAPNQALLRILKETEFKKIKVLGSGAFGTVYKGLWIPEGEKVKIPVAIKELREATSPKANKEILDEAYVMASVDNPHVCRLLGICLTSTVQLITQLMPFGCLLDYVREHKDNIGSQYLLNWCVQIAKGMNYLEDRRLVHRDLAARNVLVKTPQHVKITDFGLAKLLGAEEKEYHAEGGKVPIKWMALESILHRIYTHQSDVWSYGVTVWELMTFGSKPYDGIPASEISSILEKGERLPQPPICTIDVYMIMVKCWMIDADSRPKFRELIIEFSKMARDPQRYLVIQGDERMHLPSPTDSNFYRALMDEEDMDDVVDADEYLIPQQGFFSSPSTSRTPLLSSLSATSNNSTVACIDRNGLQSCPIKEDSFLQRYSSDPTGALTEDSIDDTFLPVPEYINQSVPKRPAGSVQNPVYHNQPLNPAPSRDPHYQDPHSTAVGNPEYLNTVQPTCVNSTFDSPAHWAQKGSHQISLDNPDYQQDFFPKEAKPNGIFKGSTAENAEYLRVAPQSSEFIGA
Protocol: The procedure was carried out according to the manufacturer’s protocol and referring to reported instructions as described in our previous investigation.

[5] = test system: Caspase-3 (Asp175); assay: Caspase-3 activation colorimetric assay in MCF-7 cells; assay type: cell-based, human; settings: 1 µM, 24 h, compared to 3i and actinomycin D
Protocol: Activation of caspases (caspase-2, 3, 6, 7, 8, 9, and 10) is a major biochemical feature that plays a central role in the morphological changes associated with apoptosis. Consequently, we evaluated compounds 3b and 3i for their potential to induce caspase-3 activation in the MCF-7 cells.
Caspase-3 activity was detected by means of Caspase-3 Colorimetric Assay Kit (Abcam, Cambridge, MA, USA). The cells were cultured in 24 well plates and treated for 24 h with 3b or 3i at a concentration of 1 µM against actinomycin D (1 µM) as a reference standard, respectively. The cells were then washed with PBS buffer and lysed on ice. The experiments were carried out according to the manufacturer’s instructions. Optical density was measured at absorbance of 450 nm using the BioTek microplate reader. The concentration of active Caspase-3 (Asp 175) were measured in duplicates and interpolated from the active caspase-3 (Asp 175) standard curve and corrected for sample dilution.

[6] = MTT, 48 h incubation, three individual experiments

| SMILES | IC50 [1] [µM] | melting point [°C] | IC50 ([2]; Homo sapiens, MCF7, 48 h) [µM] | other results |
| --- | --- | --- | --- | --- |
| O=C(/C=C/c1ccc(Cl)cc1)c1cc(Br)cc2cc(-c3ccccc3)oc12 [3c] | 26.4 | 242 to 245 | > 100 | – |
| Cc1c2oc3c(C)ccc(C(=O)N[C@@H]4C(=O)N[C@H](C(C)C)C(=O)N5CCC[C@H]5C(=O)N(C)CC(=O)N(C)[C@@H](C(C)C)C(=O)O[C@@H]4C)c3nc-2c(C(=O)N[C@@H]2C(=O)N[C@H](C(C)C)C(=O)N3CCC[C@H]3C(=O)N(C)CC(=O)N(C)[C@@H](C(C)C)C(=O)O[C@@H]2C)c(N)c1=O [Actinomycin D, reference compound] (I: T[dV]P[Sar][NMeV] / II: T[dV]P[Sar][NMeV]; ester I:1-I:C, II:1-II:C; linker I:N-II:N via Actinocin(9to1)) | – | – | 37.8 ± 1.3 | viability at 1 µM ([3]; MCF7, 48 h): 30.7%; %Early Apoptosis (Q4) ([3]; MCF-7 cells, 1 µM, 48 h): 3.4%; %Late Apoptosis (Q2) ([3]; MCF-7 cells, 1 µM, 48 h): 61.4%; %Necrosis (Q1) ([3]; MCF-7 cells, 1 µM, 48 h): 4.5%; IC50 [4]: 40 ± 30 nM |
| COc1ccc(-c2cc3cc(Br)cc(C(=O)/C=C/c4ccccc4)c3o2)cc1 [3u] | – | 255 to 256 | 48.96 ± 0.3 | – |
| O=C(/C=C/c1ccc(OC(F)(F)F)cc1)c1cc(Br)cc2cc(-c3cccc(Cl)c3)oc12 [3t] | 2.83 | – | – | IC50 [2, 6]: 26.6 ± 0.27 µM |
| O=C(/C=C/c1ccc(Cl)cc1)c1cc(Br)cc2cc(-c3cccc(F)c3)oc12 [3m] | 10.2 | 234 to 235 | 14.8 ± 0.33 | – |
| O=C(/C=C/c1ccccc1)c1cc(Br)cc2cc(-c3ccc(F)cc3)oc12 [3f] | 23.3 | 224 to 226 | 35.8 ± 1.2 | – |
| O=C(/C=C/c1ccc(F)cc1)c1cc(Br)cc2cc(-c3ccc(F)cc3)oc12 [3g] | 13.2 | 239 to 242 | 48.6 ± 2.1 | cytotoxicity against MCF-7 cells (in words) ([2]; MTT): reduced cytotoxicity |
| O=C(/C=C/c1ccc(OC(F)(F)F)cc1)c1cc(Br)cc2cc(-c3cccc(F)c3)oc12 [3o, (E)-1-(5-Bromo-2-(3-fluorophenyl)benzofuran-7-yl)-3-(4-(trifluoromethoxy)phenyl)prop-2-en-1-one] | 0.000176 | 186 to 187 | 7.87 ± 0.25 | IC50 [4]: 120 ± 40 nM |
| O=C(/C=C/c1ccc(F)cc1)c1cc(Br)cc2cc(-c3cccc(F)c3)oc12 [3l] | 3.98 | 266 to 267 | > 100 | cytotoxicity against MCF-7 cells (in words) ([2]; MTT): inactive |
| O=C(/C=C/c1ccc(F)cc1)c1cc(Br)cc2cc(-c3ccccc3)oc12 [3b] | 26.5 | – | 0.55 ± 0.24 | viability at 1 µM ([3]; MCF7, MCF-7 cells, 1 µM, 48 h): 23.3%; %Early Apoptosis (Q4) ([3]; MCF-7 cells, 1 µM, 48 h): 1.5%; %Late Apoptosis (Q2) ([3]; MCF-7 cells, 1 µM, 48 h): 72%; %Necrosis (Q1) ([3]; MCF-7 cells, 1 µM, 48 h): 3.2%; induction of apoptosis (in words) ([3]; MCF-7 cells, 1 µM, 48 h, compared to 3i and actinomycin D): induced increased apoptosis; caspase-3 activation (in words) [5]: does not induce significant caspase activation; IC50 [4]: 170 ± 30 nM |
| O=C(/C=C/c1ccc(F)cc1)c1cc(Br)cc2cc(-c3cccc(Cl)c3)oc12 [3q] | 51.3 | 232 to 233 | 23.8 ± 0.29 | – |
| O=C(/C=C/c1ccccc1)c1cc(Br)cc2cc(-c3cccc(F)c3)oc12 [3k] | 77 | 243 to 245 | 23 ± 0.38 | – |
| COc1ccc(/C=C/C(=O)c2cc(Br)cc3cc(-c4ccc(F)cc4)oc23)cc1 [3i, (E)-1-(5-Bromo-2-(4-fluorophenyl)benzofuran-7-yl)-3-(4-methoxyphenyl)prop-2-en-1-one] | 5.51e-05 | – | 0.000355 | viability at 1 µM ([3]; MCF7, MCF-7 cells, 1 µM, 48 h): 32.2%; %Early Apoptosis (Q4) ([3]; MCF-7 cells, 1 µM, 48 h): 3.1%; %Late Apoptosis (Q2) ([3]; MCF-7 cells, 1 µM, 48 h): 61.7%; %Necrosis (Q1) ([3]; MCF-7 cells, 1 µM, 48 h): 3.1%; IC50 [4]: 90 ± 30 nM |
| COc1ccc(-c2cc3cc(Br)cc(C(=O)/C=C/c4ccc(Cl)cc4)c3o2)cc1 [3w] | 48.4 | 209 to 210 | 30.6 ± 0.35 | – |
| O=C(/C=C/c1ccc(Cl)cc1)c1cc(Br)cc2cc(-c3ccc(F)cc3)oc12 [3h] | 1.33 | 231 to 233 | 54.16 ± 0.4 | cytotoxicity against MCF-7 cells (in words) ([2]; MTT): reduced cytotoxicity |
| O=C(/C=C/c1ccc(Cl)cc1)c1cc(Br)cc2cc(-c3cccc(Cl)c3)oc12 [3r] | 34.5 | 257 to 258 | 66.8 ± 0.84 | – |
| COc1ccc(/C=C/C(=O)c2cc(Br)cc3cc(-c4ccccc4)oc23)cc1 [3d] | 34.5 | 206 to 208 | 22.8 ± 0.86 | – |
| O=C(/C=C/c1ccccc1)c1cc(Br)cc2cc(-c3ccccc3)oc12 [3a] | 15.6 | – | 48 ± 2.1 | – |
| COc1ccc(/C=C/C(=O)c2cc(Br)cc3cc(-c4cccc(F)c4)oc23)cc1 [3n] | – | 221 to 222 | 39.2 ± 0.42 | inhibitory effect against tubulin polymerization (in words) [1]: Moderate activity |
| O=C(/C=C/c1ccc(OC(F)(F)F)cc1)c1cc(Br)cc2cc(-c3ccccc3)oc12 [3e] | – | – | 0.59 ± 0.21 | – |
| COc1ccc(/C=C/C(=O)c2cc(Br)cc3cc(-c4ccc(OC)cc4)oc23)cc1 [3x] | 67.4 | 216 to 217 | 69.1 ± 0.76 | – |
| COc1ccc(/C=C/C(=O)c2cc(Br)cc3cc(-c4cccc(Cl)c4)oc23)cc1 [3s] | 0.71 | 214 to 215 | 2.69 ± 0.23 | inhibitory effect against tubulin polymerization (in words) [1]: significant inhibitory effects |
| O=C(/C=C/c1ccccc1)c1cc(Br)cc2cc(-c3cccc(Cl)c3)oc12 [3p] | 0.0937 | 218 to 219 | 12.6 ± 0.23 | inhibitory effect against tubulin polymerization (in words) [1]: significant inhibitory effects; IC50 [4]: 170 ± 60 nM |
| COc1ccc(-c2cc3cc(Br)cc(C(=O)/C=C/c4ccc(OC(F)(F)F)cc4)c3o2)cc1 [3y] | 78 | 187 to 188 | 43.17 ± 0.28 | – |
| COc1ccc(-c2cc3cc(Br)cc(C(=O)/C=C/c4ccc(F)cc4)c3o2)cc1 [3v] | 0.0162 | 241 to 242 | 28.4 ± 0.46 | IC50 [4]: 150 ± 20 nM |
| O=C(/C=C/c1ccc(OC(F)(F)F)cc1)c1cc(Br)cc2cc(-c3ccc(F)cc3)oc12 [3j] | 0.00885 | – | – | IC50 [2, 6]: 16 ± 0.62 µM |
